In assay [1] the target is T1, human recombinant NK2 receptors (Homo sapiens, UniProt P21452).
T1 sequence (P21452 1-398): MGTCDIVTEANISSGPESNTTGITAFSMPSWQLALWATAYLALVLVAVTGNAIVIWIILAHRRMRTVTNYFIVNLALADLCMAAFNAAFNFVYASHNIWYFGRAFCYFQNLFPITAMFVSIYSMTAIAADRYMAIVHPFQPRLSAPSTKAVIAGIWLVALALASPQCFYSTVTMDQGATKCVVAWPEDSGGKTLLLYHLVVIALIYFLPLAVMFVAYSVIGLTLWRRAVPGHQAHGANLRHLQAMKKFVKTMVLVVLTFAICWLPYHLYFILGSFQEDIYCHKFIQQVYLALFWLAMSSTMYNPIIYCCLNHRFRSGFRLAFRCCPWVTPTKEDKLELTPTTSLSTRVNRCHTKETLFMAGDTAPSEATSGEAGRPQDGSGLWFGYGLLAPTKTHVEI
As to the kind of experiment: Displacement of [^125I]-NKA binding to CHO-hNK2 membranes.

Assay [2] addresses T2, human recombinant NK1 receptors (Homo sapiens, UniProt P25103). As to the kind of experiment: cell-based. As to the method:
(§1) Human recombinant NK2 and NK1 receptors were generated using stably transfected CHO cells (CHO-hNK2 and CHO-hNK1, respectively). Human NK2 or NK1 receptor expressing vectors from Genecopeia (Rockville, USA) were transfected in CHO cells using the standard FuGENE protocol and cells were selected using 450 μg/mL geneticin (G418). Clones expressing the receptors were selected by functional coupling to calcium using FLIPR and a single clone for each receptor subtype was selected for expansion and stable cell line generation. Cells were cultured in a humidified incubator with 5% CO2 in F12K medium containing 10% heat inactivated FBS and 450 μg/mL geneticin and passaged on reaching 80–90% confluence.
(§2) The agonist efficacy of the test compounds at recombinant human NK1 or NK2 receptors expressed in CHO cells was assessed by measuring the intracellular calcium response using the calcium-sensitive dye Fluo-4 AM (Eugene, OR, USA) and a Fluorometric Imaging Plate Reader (FLIPR, Molecular Devices, CA, USA). CHO-hNK1 and CHO-hNK2 cells were seeded into black walled clear-bottom 384-well plates at a density of 10,000 and 15,000 cells per well in 50 μL culture media, respectively, and grown overnight at 37°C in a humidified CO2-incubator. Cells were washed in washing buffer using an EMBLA 384 plate washer, leaving 20 μL of buffer per well after the final aspiration. Cells were then incubated at 37°C with the cytoplasmic Ca^2+ indicator Fluo-4 AM (final concentration 1 μM) in assay buffer (20 mM HEPES, 145 mM NaCl, 5 mM KCl, 5.5 mM glucose, 1 mM MgCl2 and 2 mM CaCl2, pH 7.4, 0.05% Pluronic F-127 and 0.1% BSA) containing 2.5 mM probenecid for 45–60 min (cell loading). Cells were then washed 3 times in washing buffer (20 mM HEPES, 145 mM NaCl, 5 mM KCl, 5.5 mM glucose, 1 mM MgCl2 and 2 mM CaCl2, pH 7.4 and 2.5 mM probenecid) using an EMBLA 384 plate washer, leaving 30 μL of buffer in each well after the last wash. Loaded cell plates were transferred to the FLIPR and calcium responses were monitored as described below. […] Concentration response curves of test compounds were generated in duplicate on at least two different occasions from the same stock solutions. Test solutions were prepared from 10 mM stock solutions in DMSO and 1 μL of each solution was stamped into V-bottom assay plates containing 49 μL assay buffer. The final concentration of DMSO was 0.5% in each well.

Assay [3] addresses T1, human recombinant NK2 receptors. As to the kind of experiment: cell-based. As to the method: as §1, §2
In assay [4] the target is T2, human recombinant NK1 receptors. Put plainly: Displacement of [^3H]-Septide binding to CHO-hNK1 membranes (septide site). Here is the method:
Protein expression was induced by addition of 5 mM sodium butyrate to the culture medium. […] The cell suspension was collected, placed on ice and centrifuged for 5 min at 4°C and 1200 rpm in a Beckman GS6R centrifuge. After removal of the supernatant the cell pellet was washed and collected by re-suspension in PBS and centrifugation. The final pellet was weighed and frozen at -80°C until use. Frozen pellets were thawed and homogenized in 10 volumes (w/v) of membrane preparation buffer (50 mM HEPES pH 7.4, 1 mM EDTA, 50 μg/mL bacitracin and protease inhibitors) using a Polytron Ultraturrax (twice for 15 s per cycle). The homogenate was centrifuged for 20 min at 4°C and 18500 rpm in a SL-50T Sorvall rotor and the pellet was re-suspended in membrane preparation buffer and re-homogenized as before. After centrifugation for 20 min at 4°C and 18500 rpm, the pellets were re-suspended in 5 volumes of membrane preparation buffer and divided into aliquots before freezing at -80°C. Protein concentration was determined using BioRad Protein Assay (Milan, Italy) with a BSA standard curve. Stock solutions of test compounds (10 mM) were prepared in DMSO and stored at -20°C until use. […] The goodness of fit between One-Site and Two-Site models was examined using Akaike's Information Corrected Criteria (AICC; [23]) in SAS v9.4 (SAS Institute, Cary NC) in order to select the best model for the data generated. […] Data from displacement experiments were plotted as the log [inhibitor concentration] (X axis) versus response expressed as TB in cpm (Y axis).

Setting [5] is: Intracellular Ca^2+ pEC50, CHO-hNK2 cells, mean ± SD.
Where [6] appears, read: NK2 EC50 intracellular calcium response, CHO-hNK2 cells.
The mark [7] stands for this setting: Intracellular Ca^2+ pEC50, CHO-hNK1 cells, mean ± SD.
Where [8] appears, read: NK1 EC50 intracellular calcium response, CHO-hNK1 cells.

The structures appear in SMILES notation. Like-named read-outs stand apart in the source and are kept apart here. Non-standard residues stand in square brackets, D forms with d. Residues, ends and D or L forms follow the SMILES beside them. NMeL = CN[C@@H](CC(C)C)C(=O)O; Nle = CCCC[C@H](N)C(=O)O; βAla = NCCC(=O)O

T2 sequence (P25103 whole entry): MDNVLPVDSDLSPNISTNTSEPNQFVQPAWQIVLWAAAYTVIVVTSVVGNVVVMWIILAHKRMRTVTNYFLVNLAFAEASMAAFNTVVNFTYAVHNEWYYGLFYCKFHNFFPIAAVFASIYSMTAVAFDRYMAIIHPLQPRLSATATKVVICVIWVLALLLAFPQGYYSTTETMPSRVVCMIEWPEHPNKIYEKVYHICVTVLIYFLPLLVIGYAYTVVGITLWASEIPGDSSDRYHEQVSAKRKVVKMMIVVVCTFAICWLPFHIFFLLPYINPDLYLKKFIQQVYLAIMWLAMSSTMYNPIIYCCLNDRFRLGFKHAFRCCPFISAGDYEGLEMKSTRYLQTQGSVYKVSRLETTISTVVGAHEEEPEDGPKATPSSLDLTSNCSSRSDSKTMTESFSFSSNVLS

Consider `CSCC[C@H](NC(=O)[C@H](CC(C)C)NC(=O)CNC(=O)[C@@H](NC(=O)[C@H](Cc1ccccc1)NC(=O)[C@H](CO)NC(=O)[C@@H](N)CC(=O)O)C(C)C)C(N)=O` [NKA(4–10), Asp-Ser-Phe-Val-Gly-Leu-Met-NH2], for which, in assay [1] ([^125I]-NKA binding pKi), the Ki (commonly the dissociation constant of the complex between target and ligand, obtained from inhibition or displacement) was 2.34 nM. For the same compound, the “Intracellular Ca^2+ % Max” value in assay [2] came to 117.4 ± 12.8%. Besides, the 50% effective concentration (EC50) in assay [3] (setting [5]) and in assay [3] (setting [6]) was 1.02 nM each time.
For `CCCC[C@H](NC(=O)[C@H](CC(C)C)N(C)C(=O)CNC(=O)[C@@H](NC(=O)[C@H](Cc1ccccc1)NC(=O)[C@H](CCCNC(=N)N)NC(=O)[C@@H](N)CC(=O)O)C(C)C)C(N)=O` [[Arg^5,MeLeu^9,Nle^10]-NKA(4-10), Asp-Arg-Phe-Val-Gly-(NMe-Leu)-Nle-NH2] (H-DRFVG[NMeL][Nle]-NH2; N-terminus assumed), the “[^125I]-NKA binding pKi” value in assay [1] (0.1 nM [^125I]-NKA, CHO-hNK2 membranes 6 μg/well, 23°C, 3 h, mean ± SD) is reported as 9.23 ± 0.19. Besides, the “[^125I]-NKA binding Slope” value in assay [1] (Hill slope of displacement curve, 0.1 nM [^125I]-NKA, 23°C, 3 h, mean ± SD) was -0.86 ± 0.09. Also, the “NK1/NK2 ratio of Ki values” in assay [1] (NK1 [^3H]-Septide Ki / NK2 [^125I]-NKA Ki) was determined as 561. In assay [1] (from Ki ratios), the “Fold more selective for NK2 over septide site of NK1 receptor compared with NKA (binding)” value is recorded as “more than 28 fold”. Further, the “[^3H]-Septide binding pKi” value in assay [4] (5.0 nM [^3H]-Septide, CHO-hNK1 membranes 20 μg/well, 23°C, 1 h, mean ± SD) was 6.48 ± 0.05. Moreover, the “[^3H]-Septide binding Slope” value in assay [4] (Hill slope of displacement curve, 5.0 nM [^3H]-Septide, 23°C, 1 h, mean ± SD) is -0.89 ± 0.13. Besides, in assay [4] (displacement of [^3H]-Septide binding, read-out: NK1 [^3H]-Septide Ki), the inhibition constant (Ki) was found to be 331 nM. For the same compound, the “Intracellular Ca^2+ % Max” value in assay [2] (CHO-hNK1 cells, % of maximal response observed with substance P, mean ± SD) was found to be 100.4 ± 1.5%; in assay [3] (CHO-hNK2 cells, % of maximal response observed with NKA, mean ± SD) it was 89.0 ± 15.5%. For the same compound, the “Intracellular Ca^2+ pEC50” value in assay [2] (CHO-hNK1 cells, mean ± SD) is 8.23 ± 0.32. The “Difference between pEC50 and pKi values” in assay [2] (NK1 receptors, calcium response vs [^3H]-Septide binding) is on record as 56 fold. In assay [3] (setting [5]), the EC50 – broadly, the concentration needed to bring the measured effect to its halfway point – is 0.0832 nM. Further, the “NK1/NK2 ratio of EC50s for intracellular calcium response” value in assay [3] (NK1 EC50 / NK2 EC50) turned out to be 70.
On to `CCCC[C@H](NC(=O)[C@H](CC(C)C)NC(=O)CNC(=O)[C@@H](NC(=O)[C@H](Cc1ccccc1)NC(=O)[C@H](CCCNC(=N)N)NC(=O)[C@@H](N)CC(=O)O)C(C)C)C(N)=O` [[Arg^5,Nle^10]-NKA(4–10), Asp-Arg-Phe-Val-Gly-Leu-Nle-NH2] (H-DRFVGL[Nle]-NH2), for which the EC50 in assay [2] (setting [7]) is 1.7 nM; in assay [2] (setting [8]) it was 1.71 nM; in assay [3] (setting [5]) it was 0.2 nM; in assay [3] (setting [6]), 0.2 nM.
As for `CCCC[C@H](NC(=O)[C@H](CC(C)C)NC(=O)CCNC(=O)[C@@H](NC(=O)[C@H](Cc1ccccc1)NC(=O)[C@H](CCCNC(=N)N)NC(=O)[C@@H](N)CC(=O)O)C(C)C)C(N)=O` [[Arg^5,β-Ala^8,Nle^10]-NKA(4–10), Asp-Arg-Phe-Val-[β-Ala]-Leu-Nle-NH2] (H-DRFV[βAla]L[Nle]-NH2), the “Intracellular Ca^2+ % Max” value in assay [2] is listed as 104.9 ± 13.2%; in assay [3], 81.4 ± 1.2%. For the same compound, the EC50 was 29.5 nM in assay [2] (setting [7]), 29.5 nM in assay [2] (setting [8]), 1.15 nM in assay [3] (setting [5]) and 1.16 nM in assay [3] (setting [6]).
On to `CSCC[C@H](NC(=O)[C@H](CC(C)C)NC(=O)CCNC(=O)[C@@H](NC(=O)[C@H](Cc1ccccc1)NC(=O)[C@H](CCCNC(=N)N)NC(=O)[C@@H](N)CC(=O)O)C(C)C)C(N)=O` [[Arg^5,β-Ala^8]-NKA(4–10), Asp-Arg-Phe-Val-[β-Ala]-Leu-Met-NH2] (H-DRFV[βAla]LM-NH2), for which the “Intracellular Ca^2+ % Max” value is 101.5 ± 18.4% in assay [2] and 106.9 ± 8.9% in assay [3]. Besides, the 50% effective concentration (EC50) in assay [2] (setting [7]) is 1.82 nM; in assay [2] (setting [8]), 1.83 nM; in assay [3] (setting [5]) it was 0.151 nM; in assay [3] (setting [6]) it was 0.15 nM.
Turning to `CSCC[C@H](NC(=O)[C@H](CC(C)C)NC(=O)CNC(=O)[C@@H](NC(=O)[C@H](Cc1ccccc1)NC(=O)[C@H](CCCNC(=N)N)NC(=O)[C@@H](N)CC(=O)O)C(C)C)C(N)=O` [[Arg^5]-NKA(4–10), Asp-Arg-Phe-Val-Gly-Leu-Met-NH2] (H-DRFVGLM-NH2), the EC50 in assay [2] (setting [7]) was 0.155 nM; in assay [2] (setting [8]), 0.16 nM; in assay [3] (setting [5]), 0.191 nM; in assay [3] (setting [6]) it was 0.19 nM.
The like results for `CCCC[C@H](NC(=O)[C@H](CC(C)C)NC(=O)CNC(=O)[C@@H](NC(=O)[C@H](Cc1ccccc1)NC(=O)[C@H](CCCCN)NC(=O)[C@@H](N)CC(=O)O)C(C)C)C(N)=O` [[Lys^5,Nle^10]-NKA(4–10), Asp-Lys-Phe-Val-Gly-Leu-Nle-NH2] were, in that order, 2.34 nM, 2.36 nM, 0.38 nM and 0.38 nM.
`CCCC[C@H](NC(=O)[C@H](CC(C)C)NC(=O)CCNC(=O)[C@@H](NC(=O)[C@H](Cc1ccccc1)NC(=O)[C@H](CCCCN)NC(=O)[C@@H](N)CC(=O)O)C(C)C)C(N)=O` [[Lys^5,β-Ala^8,Nle^10]-NKA(4–10), Asp-Lys-Phe-Val-[β-Ala]-Leu-Nle-NH2] (H-DKFV[βAla]L[Nle]-NH2): the “Intracellular Ca^2+ % Max” value was found to be 107.0 ± 14.0% in assay [2] and 83.1 ± 25.5% in assay [3]. Besides, the EC50 in assay [2] (setting [7]) was 77.6 nM; in assay [2] (setting [8]), 78.2 nM; in assay [3] (setting [5]), 3.02 nM; in assay [3] (setting [6]), 3 nM.
As for `CSCC[C@H](NC(=O)[C@H](CC(C)C)NC(=O)CCNC(=O)[C@@H](NC(=O)[C@H](Cc1ccccc1)NC(=O)[C@H](CCCCN)NC(=O)[C@@H](N)CC(=O)O)C(C)C)C(N)=O` [[Lys^5,β-Ala^8]-NKA(4–10), Asp-Lys-Phe-Val-[β-Ala]-Leu-Met-NH2] (H-DKFV[βAla]LM-NH2), the “Intracellular Ca^2+ % Max” value in assay [2] is 105.8 ± 3.4%; in assay [3] it was 92.0 ± 3.8%. The half-maximal effective concentration (EC50) in assay [2] (setting [7]) is 6.31 nM; in assay [2] (setting [8]), 6.31 nM; in assay [3] (setting [5]) it was 0.174 nM; in assay [3] (setting [6]), 0.18 nM.
Consider `CSCC[C@H](NC(=O)[C@H](CC(C)C)NC(=O)CNC(=O)[C@@H](NC(=O)[C@H](Cc1ccccc1)NC(=O)[C@H](CCCCN)NC(=O)[C@@H](N)CC(=O)O)C(C)C)C(N)=O` [[Lys^5]-NKA(4–10), Asp-Lys-Phe-Val-Gly-Leu-Met-NH2], for which the EC50 was 0.417 nM in assay [2] (setting [7]), 0.41 nM in assay [2] (setting [8]), 0.0891 nM in assay [3] (setting [5]) and 0.09 nM in assay [3] (setting [6]).
